Experimental findings from patent US10093938B2, “Regulated switch for gene expression” (The Johns Hopkins University, priority 2014, dated 2018) are described below.

Type in all cases: cell-based, Saccharomyces cerevisiae
The target of one test is T1, tTA (TetR-VP16 fusion) (Escherichia coli, UniProt P04483).
T1 construct: expressed in transfected cells; host or cells: Saccharomyces cerevisiae strain BY-TeCaOFF (integrated pSIB527, CMV promoter)
Briefly: Orthogonality: Tet-Off GFP reporter in strain BY-TeCaOFF (microscopy). Particulars: 25 μM, 1 day in SC medium. The source says:
(§1) FIG. 6. Independent regulation of fluorescent reporters, RFP and GFP, with camphor-Off and Tet-Off systems. (A) pSIB859 can be used for integrating the camphor-Off system at a single transformation. Its derivative plasmid pSIB872 carries mCherry as a reporter. (B) Plasmid pSIB498 for the Tet-Off system. Its derivative pSIB527 carries gfp as a reporter. (C)-(F) Strain BY-TeCaOFF carries both pSIB872 and pSIB527. Cell images in SC medium (C), SC with camphor (D), SC with Dox (E), and SC with camphor and Dox. The top, middle, and bottom rows represent images of RFP, GFP, and DIC, respectively. Strain BY-TeCaOFF was grown for 1 day in SC medium with the indicated compounds.
(§2) The experiments in this section were performed to examine whether the camphor-Off system was orthogonal/compatible with the Tet-Off system in a yeast strain. Firstly, we developed new two acceptor vectors: one was used for the camphor-Off switch and the other was the Tet-Off switch. […]
(§3) Cells were viewed with an Axioskop-2 microscope (Carl Zeiss, Oberkochen, Germany) equipped with an X-cite120 light source (ExFo, Ontario, Canada) and a fluorescence filter set. A 100× objective and AxioVision software were used to capture fluorescence and differential interference contrast (DIC) images.

The subject of test [1] is cam-TA. Briefly: camphor-Off system with ADE2 reporter, growth on SC-Ade. The source says: FIG. 4. […] The cells were 10-fold diluted in across each row.
Another gene ADE2 (SEQ ID No. 10) was used to further evaluate the camphor-Off system. Specifically, we investigated availability of the system to complement the adenine-auxotrophy in a camphor-dependent manner. […] On the other hand, another strain camA-TA, which had cam-TA differently from camA-EmV, grew in […] SC-Ade media (FIG. 4B). […] The reversion frequency is approximately 10^−3. The behavior of each strain was thoroughly consistent with the schematic model of the camphor-system (FIG. 2).

Test [2] concerns cam-TA. In words: camphor-Off switch, GFP reporter (flow cytometry) in strain camG-TA. As for the experimental part:
To evaluate the performance of the system, we used GFP as a reporter.
However, another strain camG-TA that was constructed by introducing the […] expression cassette into the cam-TA strain produced significant amounts of GFP (FIG. 3C). From this, we conclude that cam-TA binds to camO and can activate the transcription of the reporter gene gfp.
Subsequently, the kinetics of the system was investigated using the camG-TA strain.
Cellular fluorescence from GFP was determined using a LSRII flow cytometer (Becton Dickinson, Franklin Lakes, N.J.) equipped with 488-nm argon ion laser (blue laser) and a 530/30-filter. All samples were suspended in sterile water, and 10,000 cells were analyzed per sample. Data acquisition and analysis were performed using FACSDiva software (Becton Dickinson) and FlowJo (Tree Star, Ashland, Oreg.).
On the technique in general: In flow cytometry, cells or beads pass a laser one at a time.

For test [3], the system named is cam-TA. Particulars: BY-TeCaOFF.
Chain of cam-TA (as listed by the source): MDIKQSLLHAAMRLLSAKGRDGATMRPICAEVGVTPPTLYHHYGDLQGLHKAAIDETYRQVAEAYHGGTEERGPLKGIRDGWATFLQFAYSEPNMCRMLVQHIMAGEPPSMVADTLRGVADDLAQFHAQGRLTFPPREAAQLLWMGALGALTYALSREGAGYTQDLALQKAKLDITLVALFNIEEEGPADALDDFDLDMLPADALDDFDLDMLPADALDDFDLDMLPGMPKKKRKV
Source text: as §1, §2, §3

With D-Camphor, the “the other fluorescence (GFP, Tet-Off) on addition of camphor alone” value at tTA (TetR-VP16 fusion) is reported as “detected robustly”. For the same substance, the “growth of strain camA-TA on SC-Ade media that contained camphor” value in the test on cam-TA [1] (100 μM camphor, 1 day at 30° C., camPr-ADE2) is reported as “hardly proliferated at all”. The reversion frequency result with cam-TA [1] (camA-TA on SC-Ade media containing camphor) is reported as “approximately 10^−3”. Further, in the test on cam-TA [2] (GFP reporter, camG-TA strain), the “effective concentration for the camphor-Off system” value was determined as 25 µM. Moreover, the “camphor concentration in the presence of which the GFP signal drastically decreased” value with cam-TA [2] (camG-TA strain in SC medium, camPr-gfp reporter) is not below 25 µM. Also, the “period over which GFP intensity went to almost the same level as that of BY4741” value in the test with cam-TA [2] (camG-TA strain in the presence of camphor) worked out at 7 h. Besides, the “corresponding reporter protein (mCherry, camphor-Off) on addition of the drug” value in the test with cam-TA [3] (25 μM, 1 day in SC medium) was “drastic decrease”. For the same substance, the “expression of mCherry reporter when both camphor and Dox were supplied” value in the test on cam-TA [3] (camphor and Dox 25 μM each) was “repressed”.
